Source: US10947237B2, “Antimicrobial compounds and methods of making and using the same” (BIOVERSYS AG, priority 2015, dated 2021)

How the values were obtained:
[1] = tested on: Eschericia coli (E. Coli) strain ATCC25922; assay: standard microdilution assay, minimum inhibitory concentration (MIC); format: cell-based; conditions: Escherichia coli
Outline: (§1)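 Compounds were scored +/− against a 16 µg/mL MIC cutoff, using CLSI-based microdilution with QC reference strains. The organisms were S. aureus 11540 and E. coli ATCC25922.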

[2] = tested on: Staphylococcus aureus (S. aureus) 11540 strain; assay: as above; format: cell-based
Outline: as §1

SMILES	MIC ([1]; Table 2, strain ATCC25922)	MIC ([2]; Table 2, 11540 strain)	MIC ([1]; ATCC25922, Table 2a)	MIC ([2]; Table 2a)
C[C@H](N)CCCc1cc(Cl)c(F)c(-c2[nH]c3nc(=O)n(-c4ccc(CN[C@H](C)CCNC(=N)N)cc4)cc3c2[N+](=O)[O-])c1 [Compound 109]	> 16 µg/mL	≤ 16 µg/mL		
CC(=N)NCC[C@@H](CN)OCc1ccc(-n2cc3cc(-c4cc(CCC[C@H](C)N)cc(Cl)c4F)[nH]c3nc2=O)cc1 [Compound 178]			≤ 16 µg/mL	≤ 16 µg/mL
C[C@H](N)CCCc1cc(Cl)c(F)c(-c2cc3cn(-c4ccc(CN[C@H](CCNC(=N)N)CNC(=N)N)cc4)c(=O)nc3[nH]2)c1 [Compound 4]	≤ 16 µg/mL	≤ 16 µg/mL		
CC1=NC[C@@H](CCNC(=N)N)N1Cc1ccc(-n2cc3cc(-c4cc(CCC[C@H](C)N)cc(Cl)c4F)[nH]c3nc2=O)cc1 [Compound 77]	≤ 16 µg/mL	≤ 16 µg/mL		
CC(=N)NCC[C@@H]1CCC[C@@H](c2ccc(-n3cc4cc(C5CCNC5)[nH]c4nc3=O)cc2)N1 (some centres unmarked) [Compound 115]	≤ 16 µg/mL	≤ 16 µg/mL		
C[C@H](N)CCCc1cc(Cl)c(F)c(-c2cc3cn(-c4ccc(N5CCOC(CCNC(=N)N)C5)cc4)c(=O)nc3[nH]2)c1 (some centres unmarked) [Compound 92]	≤ 16 µg/mL	≤ 16 µg/mL		
C[C@H](N)CCCc1cc(Cl)c(F)c(-c2cc3cn(-c4ccc([C@@H]5CCC[C@@H](CCNC(=N)CCl)N5)cc4)c(=O)nc3[nH]2)c1 [Compound 86]	≤ 16 µg/mL	≤ 16 µg/mL		
C=C[C@@H](CCNC(=N)N)OCc1ccc(-n2cc3cc(CCNC4CCNCC4)[nH]c3nc2=O)cc1 [Compound 93]	> 16 µg/mL	> 16 µg/mL		
CC(=N)NCC[C@@H](CNC(=N)N)OCc1ccc(-n2cc3cc(-c4cc(CCC[C@H](C)N)cc(Cl)c4F)[nH]c3nc2=O)cc1 [Compound 172]			≤ 16 µg/mL	≤ 16 µg/mL
CC(=N)NCC[C@H](CO)OCc1ccc(-n2cc3cc(-c4cc(CCC[C@H](C)N)cc(Cl)c4F)[nH]c3nc2=O)cc1 [Compound 72]	≤ 16 µg/mL	≤ 16 µg/mL		
C[C@H](N)CCCc1cc(Cl)c(F)c(-c2cc3cn(-c4ccc([C@@H]5CCC[C@@H](CNCc6c[nH]nn6)N5)cc4)c(=O)nc3[nH]2)c1 [Compound 18]	> 16 µg/mL	> 16 µg/mL		
C[C@H](N)CCCc1cc(Cl)c(F)c(-c2cc3cn(-c4ccc([C@@H]5CCC[C@@H](CNCc6cccnn6)N5)cc4)c(=O)nc3[nH]2)c1 [Compound 6]	≤ 16 µg/mL	≤ 16 µg/mL		
N=C(N)NCC[C@@H]1C[C@H](CN)O[C@@H](c2ccc(-n3cc4cc(CCNC5CCNCC5)[nH]c4nc3=O)cc2)C1 [Compound 99]	≤ 16 µg/mL	> 16 µg/mL		
O=c1nc2[nH]c(CCNC3CCNCC3)cc2cn1-c1ccc([C@@H]2CCC[C@@H](CCNc3ncc[nH]3)N2)cc1 [Compound 95]	≤ 16 µg/mL	≤ 16 µg/mL		
C[C@H](N)CCCc1cc(Cl)c(F)c(-c2cc3cn(-c4ccc(CN[C@H](CCNC(=N)N)CS(N)(=O)=O)cc4)c(=O)nc3[nH]2)c1 [Compound 15]	≤ 16 µg/mL	≤ 16 µg/mL		
C[C@H](N)CCCc1cc(Cl)c(F)c(-c2cc3cn(-c4ccc([C@H]5CCC[C@H](CCNC(=N)c6ccccn6)N5)cc4)c(=O)nc3[nH]2)c1 [Compound 3]	≤ 16 µg/mL	≤ 16 µg/mL		
Cc1nnc(NC[C@@H](CCNC(=N)N)NCc2ccc(-n3cc4cc(-c5cc(CCC[C@H](C)N)cc(Cl)c5F)[nH]c4nc3=O)cc2)[nH]1 [Compound 55]	≤ 16 µg/mL	≤ 16 µg/mL		
N=C(N)NCC[C@H]1CC(N)C[C@H](c2ccc(-n3cc4cc(C5CCNC5)[nH]c4nc3=O)cc2)O1 (some centres unmarked) [Compound 121]	≤ 16 µg/mL	> 16 µg/mL		
N=C(N)NCC[C@H](CNc1ccccn1)OCc1ccc(-n2cc3cc(CCNC4CCNCC4)[nH]c3nc2=O)cc1 [Compound 105]	> 16 µg/mL	> 16 µg/mL		
C=C[C@H]1C[C@@H](CCNC(=N)N)O[C@H](c2ccc(-n3cc4cc(-c5cc(CCC[C@H](C)N)cc(Cl)c5F)[nH]c4nc3=O)cc2)C1 [Compound 78]	≤ 16 µg/mL	≤ 16 µg/mL		
C[C@H](N)CCCc1cc(Cl)c(F)c(-c2cc3cn(-c4ccc(CN[C@H](CCNC(=N)N)CNc5ccc(=O)[nH]n5)cc4)c(=O)nc3[nH]2)c1 [Compound 40]	≤ 16 µg/mL	≤ 16 µg/mL		
O=c1nc2[nH]c(CCNC3CCNCC3)cc2cn1-c1ccc([C@@H]2CCC[C@@H](CCc3ncc[nH]3)N2)cc1 [Compound 102]	≤ 16 µg/mL	≤ 16 µg/mL		
CC(=N)NCC[C@H](CNC(=N)N)OCc1ccc(-n2cc3cc(-c4cc(CCC[C@H](C)N)cc(Cl)c4F)[nH]c3nc2=O)cc1 [Compound 171]			≤ 16 µg/mL	≤ 16 µg/mL

Results, then the compound that gave them:

MIC ([1]; Table 2, strain ATCC25922)	MIC ([2]; Table 2, 11540 strain)	MIC ([1]; ATCC25922, Table 2a)	MIC ([2]; Table 2a)	SMILES
≤ 16 µg/mL	≤ 16 µg/mL			C[C@H](N)CCCc1cc(Cl)c(F)c(-c2cc3cn(-c4ccc(N5CCO[C@H](CCNC(=N)N)C5)cc4)c(=O)nc3[nH]2)c1 [Compound 133]
≤ 16 µg/mL	≤ 16 µg/mL			CC(=N)NC[C@@H](CCNC(=N)N)NCc1ccc(-n2cc3cc(-c4cc(CCC[C@H](C)N)cc(Cl)c4F)[nH]c3nc2=O)cc1 [Compound 67]
≤ 16 µg/mL	≤ 16 µg/mL			C[C@H](N)CCCc1cc(Cl)c(F)c(-c2cc3cn(-c4ccc(CO[C@@H](CO)CCNC(=N)N)cc4)c(=O)nc3[nH]2)c1 [Compound 71]
≤ 16 µg/mL	≤ 16 µg/mL			C[C@H](N)CCCc1cc(Cl)c(F)c(-c2cc3cn(-c4ccc([C@@H]5CCC[C@@H](CCNC(=N)CCCCl)N5)cc4)c(=O)nc3[nH]2)c1 [Compound 28]
≤ 16 µg/mL	≤ 16 µg/mL			C[C@H](N)CCCc1cc(Cl)c(F)c(-c2cc3cn(-c4ccc([C@@H]5C/C(=C/CNC(=N)N)CC(CO)O5)cc4)c(=O)nc3[nH]2)c1 (some centres unmarked) [Compound 89]
≤ 16 µg/mL	≤ 16 µg/mL			COc1ncccc1NC[C@@H](CCNC(=N)N)NCc1ccc(-n2cc3cc(-c4cc(CCC[C@H](C)N)cc(Cl)c4F)[nH]c3nc2=O)cc1 [Compound 63]
≤ 16 µg/mL	≤ 16 µg/mL			C[C@H](N)CCCc1cc(Cl)c(F)c(-c2cc3cn(-c4ccc([C@H]5N[C@H](CCNC(=N)N)CCO5)cc4)c(=O)nc3[nH]2)c1 [Compound 31]
≤ 16 µg/mL	≤ 16 µg/mL			C=C[C@@H](CCNC(=N)N)NCc1ccc(-n2cc3cc(-c4cc([C@H]5CC[C@@H](CN)O5)cc(Cl)c4F)[nH]c3nc2=O)cc1 [Compound 140]
≤ 16 µg/mL	≤ 16 µg/mL			C[C@H](N)CCCc1cc(Cl)c(F)c(-c2cc3cn(-c4ccc(CN[C@@H](CCN)CCNC(=N)N)cc4)c(=O)nc3[nH]2)c1 [Compound 57]
≤ 16 µg/mL	≤ 16 µg/mL			Cc1nc(NCC[C@@H]2CCC[C@@H](c3ccc(-n4cc5cc(-c6cc(CCC[C@H](C)N)cc(OC(F)(F)F)c6F)[nH]c5nc4=O)cc3)N2)[nH]c1C [Compound 42]
≤ 16 µg/mL	≤ 16 µg/mL			C[C@H](N)CCCc1cc(Cl)c(F)c(-c2cc3cn(-c4ccc(CO[C@H](CCNC(=N)N)CNC(=N)N)cc4)c(=O)nc3[nH]2)c1 [Compound 64]
≤ 16 µg/mL	≤ 16 µg/mL			C[C@H](N)CCCc1cc(Cl)c(F)c(-c2cc3cn(-c4ccc(CN[C@H](CCNC(=N)N)Cc5ncon5)cc4)c(=O)nc3[nH]2)c1 [Compound 45]
≤ 16 µg/mL	≤ 16 µg/mL			C[C@H](N)CCCc1cc(Cl)c(F)c(-c2cc3cn(-c4ccc([C@@H]5CC(CCNC(=N)N)CC(CO)O5)cc4)c(=O)nc3[nH]2)c1 (some centres unmarked) [Compound 88]
≤ 16 µg/mL	≤ 16 µg/mL			C[C@H](N)CCCc1cc(Cl)c(F)c(-c2cc3cn(-c4ccc(CN[C@H](CCNC(=N)N)CNc5cc(F)ccn5)cc4)c(=O)nc3[nH]2)c1 [Compound 91]
